The supplement of paper PMC10307832

Assays:
Assay in all cases: relative viability (nuclei count vs DMSO), 5 days (fraction); higher = more cells survive
Sorafenib = compound: CNC(=O)c1cc(Oc2ccc(NC(=O)Nc3ccc(Cl)c(C(F)(F)F)c3)cc2)ccn1 [Sorafenib]
How it was run: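 Lung cancer cell lines in 1536-well plates were exposed by pinning to five library-drug doses (not always all listed) √10 apart, following an overnight hold at 37 °C. MetaXpress counted Hoechst-stained nuclei from 4× images taken after 5 days without medium change. Viability is the median ratio of treated-well to vehicle-well nuclei across plates. Plates required control CV below 25% and at least one doubling.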

Sorafenib + Phenformin = compound: CNC(=O)c1cc(Oc2ccc(NC(=O)Nc3ccc(Cl)c(C(F)(F)F)c3)cc2)ccn1 [Sorafenib] + N=C(N)NC(=N)NCCc1ccccc1 [Phenformin] (partner 250 µM)
How it was run: (§1)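 Lung cancer cell lines, seeded in 1536-well plates, were treated the following day by pin tool with a single drug or with five library-drug doses (not always all listed) in √10 steps on top of a fixed anchor-drug dose. Cells were fixed and nuclei stained in one step after 5 days, and nuclei were counted. Relative viability is the nuclei count for treated wells divided by that for vehicle wells, reported as medians of duplicate plates.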

Sorafenib + OSI-027 = compound: CNC(=O)c1cc(Oc2ccc(NC(=O)Nc3ccc(Cl)c(C(F)(F)F)c3)cc2)ccn1 [Sorafenib] + COc1cccc2cc(-c3nc([C@H]4CC[C@H](C(=O)O)CC4)n4ncnc(N)c34)[nH]c12 [OSI-027] (partner 0.5 µM)
How it was run: as §1

Sorafenib + Tozasertib = compound: CNC(=O)c1cc(Oc2ccc(NC(=O)Nc3ccc(Cl)c(C(F)(F)F)c3)cc2)ccn1 [Sorafenib] + Cc1cc(Nc2cc(N3CCN(C)CC3)nc(Sc3ccc(NC(=O)C4CC4)cc3)n2)n[nH]1 [Tozasertib] (partner 0.1 µM)
How it was run: as §1

Sorafenib + Dasatinib = compound: CNC(=O)c1cc(Oc2ccc(NC(=O)Nc3ccc(Cl)c(C(F)(F)F)c3)cc2)ccn1 [Sorafenib] + Cc1nc(Nc2ncc(C(=O)Nc3c(C)cccc3Cl)s2)cc(N2CCN(CCO)CC2)n1 [Dasatinib] (partner 0.075 µM)
How it was run: as §1

Sorafenib + Foretinib = compound: CNC(=O)c1cc(Oc2ccc(NC(=O)Nc3ccc(Cl)c(C(F)(F)F)c3)cc2)ccn1 [Sorafenib] + COc1cc2c(Oc3ccc(NC(=O)C4(C(=O)Nc5ccc(F)cc5)CC4)cc3F)ccnc2cc1OCCCN1CCOCC1 [Foretinib] (partner 0.25 µM)
How it was run: as §1

Sorafenib + Luminespib = compound: CNC(=O)c1cc(Oc2ccc(NC(=O)Nc3ccc(Cl)c(C(F)(F)F)c3)cc2)ccn1 [Sorafenib] + CCNC(=O)c1noc(-c2cc(C(C)C)c(O)cc2O)c1-c1ccc(CN2CCOCC2)cc1 [Luminespib] (partner 0.01 µM)
How it was run: as §1

Sorafenib + Olaparib = compound: CNC(=O)c1cc(Oc2ccc(NC(=O)Nc3ccc(Cl)c(C(F)(F)F)c3)cc2)ccn1 [Sorafenib] + O=C(c1cc(Cc2n[nH]c(=O)c3ccccc23)ccc1F)N1CCN(C(=O)C2CC2)CC1 [Olaparib] (partner 8 µM)
How it was run: as §1

Sorafenib + Linsitinib = compound: CNC(=O)c1cc(Oc2ccc(NC(=O)Nc3ccc(Cl)c(C(F)(F)F)c3)cc2)ccn1 [Sorafenib] + C[C@]1(O)C[C@@H](c2nc(-c3ccc4ccc(-c5ccccc5)nc4c3)c3c(N)nccn32)C1 [Linsitinib] (partner 1 µM)
How it was run: as §1

Sorafenib + Pictilisib = compound: CNC(=O)c1cc(Oc2ccc(NC(=O)Nc3ccc(Cl)c(C(F)(F)F)c3)cc2)ccn1 [Sorafenib] + CS(=O)(=O)N1CCN(Cc2cc3nc(-c4cccc5[nH]ncc45)nc(N4CCOCC4)c3s2)CC1 [Pictilisib] (partner 1 µM)
How it was run: as §1

Sorafenib + Lapatinib = compound: CNC(=O)c1cc(Oc2ccc(NC(=O)Nc3ccc(Cl)c(C(F)(F)F)c3)cc2)ccn1 [Sorafenib] + CS(=O)(=O)CCNCc1ccc(-c2ccc3ncnc(Nc4ccc(OCc5cccc(F)c5)c(Cl)c4)c3c2)o1 [Lapatinib] (partner 2 µM)
How it was run: as §1

Sorafenib + Navitoclax = compound: CNC(=O)c1cc(Oc2ccc(NC(=O)Nc3ccc(Cl)c(C(F)(F)F)c3)cc2)ccn1 [Sorafenib] + CC1(C)CCC(c2ccc(Cl)cc2)=C(CN2CCN(c3ccc(C(=O)NS(=O)(=O)c4ccc(N[C@H](CCN5CCOCC5)CSc5ccccc5)c(S(=O)(=O)C(F)(F)F)c4)cc3)CC2)C1 [Navitoclax] (partner 0.5 µM)
How it was run: as §1

Sorafenib + Bortezomib = compound: CNC(=O)c1cc(Oc2ccc(NC(=O)Nc3ccc(Cl)c(C(F)(F)F)c3)cc2)ccn1 [Sorafenib] + CC(C)C[C@H](NC(=O)[C@H](Cc1ccccc1)NC(=O)c1cnccn1)B(O)O [Bortezomib] (partner 0.002 µM)
How it was run: as §1

Sorafenib + Alpelisib = compound: CNC(=O)c1cc(Oc2ccc(NC(=O)Nc3ccc(Cl)c(C(F)(F)F)c3)cc2)ccn1 [Sorafenib] + Cc1nc(NC(=O)N2CCC[C@H]2C(N)=O)sc1-c1ccnc(C(C)(C)C(F)(F)F)c1 [Alpelisib] (partner 2 µM)
How it was run: as §1

Sorafenib + Crizotinib = compound: CNC(=O)c1cc(Oc2ccc(NC(=O)Nc3ccc(Cl)c(C(F)(F)F)c3)cc2)ccn1 [Sorafenib] + C[C@@H](Oc1cc(-c2cnn(C3CCNCC3)c2)cnc1N)c1c(Cl)ccc(F)c1Cl [Crizotinib] (partner 1 µM)
How it was run: as §1

Cell Line: NCI-H1623
- relative viability (Sorafenib; 0.08 µM): 0.977
- relative viability (Sorafenib; 0.253 µM): 0.898
- relative viability (Sorafenib; 2.53 µM): 1.06
- relative viability (Sorafenib; 8 µM): 0.945
- relative viability (Sorafenib + Phenformin; first compound 0.08 µM): 0.651
- relative viability (Sorafenib + Phenformin; first compound 0.253 µM): 0.562
- relative viability (Sorafenib + Phenformin; first compound 2.53 µM): 0.66
- relative viability (Sorafenib + Phenformin; first compound 8 µM): 0.521
- relative viability (Sorafenib + OSI-027; first compound 0.08 µM): 0.414
- relative viability (Sorafenib + OSI-027; first compound 0.253 µM): 0.411
- relative viability (Sorafenib + OSI-027; first compound 2.53 µM): 0.5
- relative viability (Sorafenib + OSI-027; first compound 8 µM): 0.37
- relative viability (Sorafenib + Tozasertib; first compound 0.08 µM): 0.431
- relative viability (Sorafenib + Tozasertib; first compound 0.253 µM): 0.397
- relative viability (Sorafenib + Tozasertib; first compound 2.53 µM): 0.476
- relative viability (Sorafenib + Tozasertib; first compound 8 µM): 0.411
- relative viability (Sorafenib + Dasatinib; first compound 0.08 µM): 0.537
- relative viability (Sorafenib + Dasatinib; first compound 0.253 µM): 0.552
- relative viability (Sorafenib + Dasatinib; first compound 2.53 µM): 0.604
- relative viability (Sorafenib + Dasatinib; first compound 8 µM): 0.429
- relative viability (Sorafenib + Foretinib; first compound 0.08 µM): 1.06
- relative viability (Sorafenib + Foretinib; first compound 0.253 µM): 0.852
- relative viability (Sorafenib + Foretinib; first compound 2.53 µM): 0.975
- relative viability (Sorafenib + Foretinib; first compound 8 µM): 0.776
- relative viability (Sorafenib + Luminespib; first compound 0.08 µM): 0.544
- relative viability (Sorafenib + Luminespib; first compound 0.253 µM): 0.366
- relative viability (Sorafenib + Luminespib; first compound 2.53 µM): 0.611
- relative viability (Sorafenib + Luminespib; first compound 8 µM): 0.342

Cell Line: EBC-1
- relative viability (Sorafenib; 0.08 µM): 1.05
- relative viability (Sorafenib; 0.253 µM): 0.904
- relative viability (Sorafenib; 2.53 µM): 0.929
- relative viability (Sorafenib; 8 µM): 0.812
- relative viability (Sorafenib + Olaparib; first compound 0.08 µM): 0.717
- relative viability (Sorafenib + Olaparib; first compound 0.253 µM): 0.543
- relative viability (Sorafenib + Olaparib; first compound 2.53 µM): 0.594
- relative viability (Sorafenib + Olaparib; first compound 8 µM): 0.557
- relative viability (Sorafenib + Linsitinib; first compound 0.253 µM): 0.732
- relative viability (Sorafenib + Linsitinib; first compound 2.53 µM): 0.931
- relative viability (Sorafenib + Linsitinib; first compound 8 µM): 0.625
- relative viability (Sorafenib + Pictilisib; first compound 0.08 µM): 0.371
- relative viability (Sorafenib + Pictilisib; first compound 0.253 µM): 0.419
- relative viability (Sorafenib + Pictilisib; first compound 2.53 µM): 0.355
- relative viability (Sorafenib + Pictilisib; first compound 8 µM): 0.287
- relative viability (Sorafenib + Lapatinib; first compound 0.08 µM): 0.203
- relative viability (Sorafenib + Lapatinib; first compound 0.253 µM): 0.219
- relative viability (Sorafenib + Lapatinib; first compound 2.53 µM): 0.226
- relative viability (Sorafenib + Lapatinib; first compound 8 µM): 0.208
- relative viability (Sorafenib + Navitoclax; first compound 0.08 µM): 0.568
- relative viability (Sorafenib + Navitoclax; first compound 2.53 µM): 0.42
- relative viability (Sorafenib + Navitoclax; first compound 8 µM): 0.451
- relative viability (Sorafenib + Bortezomib; first compound 0.08 µM): 0.575
- relative viability (Sorafenib + Bortezomib; first compound 0.253 µM): 0.481
- relative viability (Sorafenib + Bortezomib; first compound 2.53 µM): 0.521
- relative viability (Sorafenib + Bortezomib; first compound 8 µM): 0.405
- relative viability (Sorafenib + Alpelisib; first compound 0.08 µM): 0.875
- relative viability (Sorafenib + Alpelisib; first compound 0.253 µM): 0.769
- relative viability (Sorafenib + Alpelisib; first compound 2.53 µM): 0.89
- relative viability (Sorafenib + Alpelisib; first compound 8 µM): 0.623
- relative viability (Sorafenib + Foretinib; first compound 0.08 µM): 0.092
- relative viability (Sorafenib + Foretinib; first compound 0.253 µM): 0.1
- relative viability (Sorafenib + Foretinib; first compound 2.53 µM): 0.11
- relative viability (Sorafenib + Foretinib; first compound 8 µM): 0.114
- relative viability (Sorafenib + Crizotinib; first compound 0.08 µM): 0.189
- relative viability (Sorafenib + Crizotinib; first compound 0.253 µM): 0.176
- relative viability (Sorafenib + Crizotinib; first compound 2.53 µM): 0.202
- relative viability (Sorafenib + Crizotinib; first compound 8 µM): 0.203

Cell Line: NCI-H1299
- relative viability (Sorafenib; 0.08 µM): 1.02
- relative viability (Sorafenib; 0.253 µM): 0.963
- relative viability (Sorafenib; 2.53 µM): 0.957
- relative viability (Sorafenib; 8 µM): 0.922
- relative viability (Sorafenib + Olaparib; first compound 0.08 µM): 0.903
- relative viability (Sorafenib + Olaparib; first compound 0.253 µM): 0.894
- relative viability (Sorafenib + Olaparib; first compound 2.53 µM): 0.882
- relative viability (Sorafenib + Olaparib; first compound 8 µM): 0.537
- relative viability (Sorafenib + Linsitinib; first compound 0.08 µM): 0.947
- relative viability (Sorafenib + Linsitinib; first compound 0.253 µM): 0.88
- relative viability (Sorafenib + Linsitinib; first compound 2.53 µM): 0.875
- relative viability (Sorafenib + Linsitinib; first compound 8 µM): 0.946
- relative viability (Sorafenib + Pictilisib; first compound 0.08 µM): 0.867
- relative viability (Sorafenib + Pictilisib; first compound 0.253 µM): 0.487
- relative viability (Sorafenib + Pictilisib; first compound 2.53 µM): 0.64
- relative viability (Sorafenib + Pictilisib; first compound 8 µM): 0.253
- relative viability (Sorafenib + Lapatinib; first compound 0.08 µM): 0.933
- relative viability (Sorafenib + Lapatinib; first compound 0.253 µM): 0.86
- relative viability (Sorafenib + Lapatinib; first compound 2.53 µM): 0.874
- relative viability (Sorafenib + Lapatinib; first compound 8 µM): 0.802
- relative viability (Sorafenib + Navitoclax; first compound 0.08 µM): 1.07
- relative viability (Sorafenib + Navitoclax; first compound 0.253 µM): 1.05
- relative viability (Sorafenib + Navitoclax; first compound 2.53 µM): 1.01
- relative viability (Sorafenib + Navitoclax; first compound 8 µM): 0.573
- relative viability (Sorafenib + Bortezomib; first compound 0.08 µM): 1.02
- relative viability (Sorafenib + Bortezomib; first compound 0.253 µM): 1.04
- relative viability (Sorafenib + Bortezomib; first compound 2.53 µM): 1.01
- relative viability (Sorafenib + Bortezomib; first compound 8 µM): 0.952
- relative viability (Sorafenib + Alpelisib; first compound 0.08 µM): 1.06
- relative viability (Sorafenib + Alpelisib; first compound 0.253 µM): 0.982
- relative viability (Sorafenib + Alpelisib; first compound 2.53 µM): 0.962
- relative viability (Sorafenib + Alpelisib; first compound 8 µM): 0.877
- relative viability (Sorafenib + Foretinib; first compound 0.08 µM): 1.09
- relative viability (Sorafenib + Foretinib; first compound 0.253 µM): 1.08
- relative viability (Sorafenib + Foretinib; first compound 2.53 µM): 1.02
- relative viability (Sorafenib + Foretinib; first compound 8 µM): 1.05
- relative viability (Sorafenib + Crizotinib; first compound 0.08 µM): 0.9
- relative viability (Sorafenib + Crizotinib; first compound 0.253 µM): 0.859
- relative viability (Sorafenib + Crizotinib; first compound 2.53 µM): 0.907
- relative viability (Sorafenib + Crizotinib; first compound 8 µM): 0.688
